Measurements reported in paper PMC3711446 (2013).

T1: MBNL1N, Cy3-labeled (UniProt Q9NR56 1-253)
T1 sequence: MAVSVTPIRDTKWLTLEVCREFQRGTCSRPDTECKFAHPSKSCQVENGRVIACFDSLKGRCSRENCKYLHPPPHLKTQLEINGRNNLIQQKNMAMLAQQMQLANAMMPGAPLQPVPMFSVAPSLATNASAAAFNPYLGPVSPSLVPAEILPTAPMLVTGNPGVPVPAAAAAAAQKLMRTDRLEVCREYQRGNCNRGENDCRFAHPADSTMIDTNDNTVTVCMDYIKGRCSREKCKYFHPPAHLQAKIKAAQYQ


Legend:
[1] = test system: TAMRA-(CUG)6 (RNA, repeat) CUGCUGCUGCUGCUGCUG; assay: fluorescence titration; details: PBS 1x (137 mM NaCl, 2.7 mM KCl); PBS pH 7.4, 20 °C; 20 nM RNA
MBNL1N, Cy3-labeled = target: T1, MBNL1N, Cy3-labeled; assay: single-molecule TIRFM

KD [1] [µM]	Molecule	Kd (MBNL1N, Cy3-labeled) [µM]
66 ± 2	CNC(=O)c1ccc2nc3ccccc3c(NCCCCNc3nc(N)nc(N)n3)c2c1	–
0.318 ± 0.015	Nc1nc(N)nc(NCCCCNc2c3ccccc3nc3c(C(=O)NCCCNCCCNCCCNC(=O)c4cccc5c(NCCCCNc6nc(N)nc(N)n6)c6ccccc6nc45)cccc23)n1	–
–	GCUGCUGUUCGCUGCUG (structured_RNA, 3' TEG-biotin) [(CUG)4 TIRF construct]	0.0031 ± 0.0001
